Entries after “also recorded” stand apart in the source; their conditions may differ.
Test system: HLA alleles of class II
Experiment: Affinity of epitopes for HLA alleles of class II
Assay type: binding, human
Details: for Concatenation affinity for the HLA alleles of class II: H2B-II peptides; for Concatenation affinity for the HLA alleles of class II / Affinity HLA alleles of class II: Table 1; for Affinity HLA alleles of class II: H2B-II core epitopes
Source text: The multiepitopic peptide compounds (24 to 40-mer), having a high affinity with a maximized number of HLA molecules of class I and of class II, such as the affinities for the alleles HLA of class I and HLA of class II of the epitopes in the peptides of the sequences SEQ ID NO: 22, 23, 65, 66, 69, 73, 77, 96, 97, 137, 138, and 157, 185, have a high immunoprevalent potential corresponding to an optimal vaccine coverage, in particular for the populations concerned. The degree of coverage of the peptide compounds of the invention show a very high added value compared with the peptides of the prior art.

SGSDYSHSMIRDLDF (listed as Leishmania infantum) [SEQ ID NO: 167]
Concatenation affinity for HLA alleles of class II (PSA KC-2.7 peptides, Table 3): HLA-DRB1*01:01, HLA-DRB1*04:05,; also recorded: HLA-DRB1*07:01, HLA-DRB1*09:01,; also recorded: HLA-DRB5*01:01,; also recorded: HLA-DPA1*02:01/DPB1*14:01

SHSMIRDLDGSNMGL (SHSMIRDLDFSNMGL; listed as Leishmania infantum) [SEQ ID NO: 168]
Concatenation affinity for HLA alleles of class II (PSA KC-2.7 peptides, Table 3): HLA-DRB1*03:01, HLA-DRB1*04:01,; also recorded: HLA-DRB1*04:05, HLA-DRB1*08:02,; also recorded: HLA-DRB1*12:01, HLA-DRB4*01:01

SLKAINAQMSMSHRT (Leishmania major) [SEQ ID NO: 37]
Concatenation affinity for the HLA alleles of class II: HLA-DRB1*07:01, HLA-DRB1*04:01, HLA-DRB1*04:05,; also recorded: HLA-DRB1*09:01, HLA-DRB1*11:01, HLA-DRB1*15:01,; also recorded: HLA-DRB5*01:01, HLA-DRB1*01:01, HLA-DRB1*08:02,; also recorded: HLA-DRB4*01:01,

SRKVQEEVFDLFTDV (Leishmania major) [SEQ ID NO: 114]
Concatenation affinity for HLA alleles of class II (LmlRAB-IIB peptides, Table 2): HLA-DRB1*03:01, HLA-DPA1*01:03/DPB1*02:01,; also recorded: HLA-DPA1*02:01/DPB1*05:01,; also recorded: HLA-DPA1*03:01/DPB1*04:02

SVVGRHLSIVADHMP (Leishmania major) [SEQ ID NO: 83]
Concatenation affinity for HLA alleles of class II (LmLRAB-IIA peptides, Table 2): HLA-DRB1*15:01

SWNVYVGRSLKAINA (Leishmania major) [SEQ ID NO: 29]
Concatenation affinity for the HLA alleles of class II: HLA-DRB5*01:01, HLA-DRB1*04:05, HLA-DPA1*03:01/; also recorded: DPB1*04:02, HLA-DRB1*01:01, HLA-DRB1*03:01,; also recorded: HLA-DRB1*04:01, HLA-DRB1*11:01, HLA-DRB1*13:02,; also recorded: HLA-DRB1*07:01, HLA-DRB1*09:01, HLA-DRB1*15:01,; also recorded: HLA-DPA1*02:01/DPB1*01:01, HLA-DRB1*08:02

TSRKVQEEVFDLFTD (Leishmania major) [SEQ ID NO: 115]
Concatenation affinity for HLA alleles of class II (LmlRAB-IIB peptides, Table 2): HLA-DRB1*03:01, HLA-DPA1*01:03/DPB1*02:01,; also recorded: HLA-DPA1*02:01/DPB1*05:01,; also recorded: HLA-DPA1*03:01/HLA-DPB1*04:02,; also recorded: HLA-DPA1*02:01/HLA-DPB1*14:01

VGRHLSIVA (Leishmania major) [SEQ ID NO: 91]
Concatenation affinity for HLA alleles of class II (LmLRAB-IIA core, Table 2): HLA-DRB1*15:01

VGRHLSIVADHMPHL (Leishmania major) [SEQ ID NO: 85]
Concatenation affinity for HLA alleles of class II (LmLRAB-IIA peptides, Table 2): HLA-DRB1*03:01,; also recorded: HLA-DRB3*01:01,; also recorded: HLA-DRB1*13:02,; also recorded: HLA-DRB1*15:01,

VGRSLKAIN (Leishmania major) [SEQ ID NO: 51]
Affinity HLA alleles of class II: HLA-DRB1*03:01,; also recorded: HLA-DRB1*04:05,; also recorded: HLA-DRB1*08:02,; also recorded: HLA-DRB1*11:01

VGRSLKAINAWMSMS (VGRSLKAINAQMSMS; Leishmania major) [SEQ ID NO: 34]
Concatenation affinity for the HLA alleles of class II: HLA-DRB1*01:01, HLA-DRB1*04:05, HLA-DRB1*07:01,; also recorded: HLA-DRB1*09:01, HLA-DRB4*01:01, HLA-DRB5*01:01,; also recorded: HLA-DRB1*04:01, HLA-DRB1*08:02, HLA-DRB1*11:01,; also recorded: HLA-DRB1*13:02

VQEEVFDLFTDVHYS (Leishmania major) [SEQ ID NO: 117]
Concatenation affinity for HLA alleles of class II (LmlRAB-IIB peptides, Table 2): HLA-DRB1*03:01, HLA-DRB1*04:01,; also recorded: HLA-DRB1*04:05, HLA-DRB1*07:01,; also recorded: HLA-DRB1*15:01, HLA-DPA1*01:03/DPB1*02:01,; also recorded: HLA-DPA1*02:01/DPB1*05:01,; also recorded: HLA-DPA1*03:01/DPB1*04:02

VTSRKQEEVFDLFT (Leishmania major) [SEQ ID NO: 118]
Concatenation affinity for HLA alleles of class II (LmlRAB-IIB peptides, Table 2): HLA-DRB1*03:01, HLA-DPA1*01:03/DPB1*02:01,; also recorded: HLA-DPA1*02:01/DPB1*05:01,; also recorded: HLA-DPA1*03:01/HLA-DPB1*04:02,; also recorded: HLA-DPA1*02:01/HLA-DPB1*14:01

VVGRHLSIVADHMPH (Leishmania major) [SEQ ID NO: 84]
Concatenation affinity for HLA alleles of class II (LmLRAB-IIA peptides, Table 2): HLA-DRB1*01:01

VYVGRSLKAINAQMS (Leishmania major) [SEQ ID NO: 32]
Concatenation affinity for the HLA alleles of class II: HLA-DRB1*01:01, HLA-DRB1*04:05, HLA-DRB1*07:01,; also recorded: HLA-DRB4*01:01, HLA-DRB1*04:01, HLA-DRB1*09:01,; also recorded: HLA-DRB1*03:01, HLA-DRB1*11:01, HLA-DRB1*15:01,; also recorded: HLA-DRB1*08:02

WNVYVGRSL (Leishmania major) [SEQ ID NO: 53]
Affinity HLA alleles of class II: HLA-DRB1*04:05,; also recorded: HLA-DRB1*07:01,; also recorded: HLA-DRB1*09:01,; also recorded: HLA-DRB1*15:01,; also recorded: HLA-DRB5*01:01

WNVYVGRSLKAINAQ (Leishmania major) [SEQ ID NO: 30]
Concatenation affinity for the HLA alleles of class II: HLA-DRB5*01:01, HLA-DRB1*04:05, HLA-DPA1*03:01/; also recorded: DPB1*04:02, HLA-DRB1*01:01, HLA-DRB1*03:01,; also recorded: HLA-DRB1*04:01, HLA-DRB1*11:01, HLA-DRB1*07:01,; also recorded: HLA-DRB9*01:01, HLA-DRB1*15:01, HLA-DPA1*02:01/; also recorded: DPB1*01:01, HLA-DRB1*08:02

YFLTDEKTS (listed as Leishmania infantum) [SEQ ID NO: 150]
Concatenation affinity for HLA alleles of class II (PSA KC-2.6 core, Table 3): HLA-DRB1*04:01,; also recorded: HLA-DRB1*11:01

YFLTDEKTSLVYGDG (listed as Leishmania infantum) [SEQ ID NO: 145]
Concatenation affinity for HLA alleles of class II (PSA KC-2.6 peptides, Table 3): HLA-DRB1*01:01, HLA-DRB1*03:01,; also recorded: HLA-DRB1*04:01, HLA-DRB3*01:01,; also recorded: HLA-DRB3*02:02,; also recorded: HLA-DPA1*03:01/DPB1*04:02,; also recorded: HLA-DPA1*02:01/DPB1*14:01

YSEVSAKTK (Leishmania major) [SEQ ID NO: 127]
Concatenation affinity for HLA alleles of class II (LmlRAB-IIB core, Table 2): HLA-DRB1*07:01,; also recorded: HLA-DRB5*01:01

YSHSMIRDL (listed as Leishmania infantum) [SEQ ID NO: 178]
Concatenation affinity for HLA alleles of class II (PSA KC-2.7 core, Table 3): HLA-DRB1*04:05,; also recorded: HLA-DRB1*07:01,; also recorded: HLA-DRB1*09:01,; also recorded: HLA-DPA1*02:01/; also recorded: DPB1*01:01

YSHSMIRDLDFSNMG (listed as Leishmania infantum) [SEQ ID NO: 170]
Concatenation affinity for HLA alleles of class II (PSA KC-2.7 peptides, Table 3): HLA-DRB1*04:01, HLA-DRB1*04:05,; also recorded: HLA-DRB1*07:01, HLA-DRB1*08:02,; also recorded: HLA-DRB1*09:01, HLA-DRB1*12:01,; also recorded: HLA-DRB4*01:01

YVGRSLKAI (Leishmania major) [SEQ ID NO: 54]
Affinity HLA alleles of class II: HLA-DRB1*08:02,; also recorded: HLA-DPA1*02:01/; also recorded: DPB1*01:01

YVGRSLKAINAQMSM (Leishmania major) [SEQ ID NO: 33]
Concatenation affinity for the HLA alleles of class II: HLA-DRB1*04:01, HLA-DRB1*11:01, HLA-DRB1*08:02,; also recorded: HLA-DRB1*01:01, HLA-DRB1*04:05, HLA-DRB1*07:01,; also recorded: HLA-DRB1*09:01, HLA-DRB4*01:01, HLA-DRB5*01:01,

Reference: US11559575B2, “Multi-epitopic peptide compounds and vaccines against leishmaniasis” (INSTITUT DE RECHERCHE POUR LE DEVELOPPEMENT, priority 2018, dated 2023)
